Experimental data from patent US9018234B2, “Fluoro-substituted 2-aryl-3,5-dicyano-4-indazolyl-6-methyl-1,4-dihydropyridines and uses thereof” (Bayer Intellectual Property GmbH, priority 2009, dated 2015).

Experiment: Caco-2 permeability assay
Type: in vitro ADME
Details: human, apical to basolateral, 2 μM test concentration, 2 h at 37° C., read-out: Caco-2 permeability PappA-B
Description: Caco-2 Permeability Assay:
The in vitro permeation of a test compound across a Caco-2 cell monolayer is a well-established assay system to predict the permeability from the gastro-intestinal tract [cf. P. Artursson and J. Karlsson: Correlation between oral drug absorption in humans and apparent drug permeability coefficients in human intestinal epithelial (Caco-2) cells, Biochem. Biophys. 175 (3), 880-885 (1991)]. The permeability of the compounds of the present invention in such Caco-2 cells was determined as described below:
Human Caco-2 cells (ACC No. 169, DSMZ, German Collection of Microorganisms and Cell Cultures, Braunschweig, Germany) are seeded on 24-well insert plates and are allowed to grow for 14-16 days. For permeability studies, the test compounds are dissolved in DMSO and diluted to the final test concentration of 2 μM with transport buffer [Hanks' Buffered Salt Solution, Gibco/Invitrogen, further supplemented with glucose (final concentration 19.9 mM) and HEPES (final concentration 9.8 mM)]. For determination of the apical to basolateral permeability (PappA-B), the test compound solution is added to the apical side of the cell monolayer and transport buffer to the basolateral side of the monolayer; for determination of the basolateral to apical permeability (PappB-A), the test compound solution is added to the basolateral side of the cell monolayer and transport buffer to the apical side of the monolayer. Samples are taken from the donor compartment at the beginning of the experiment to confirm mass balance. After an incubation of 2 h at 37° C., samples are taken from both compartments. Samples are analyzed by LC-MS/MS, and the apparent permeability coefficients are calculated. Lucifer Yellow permeability is assayed for each cell monolayer to ensure cell monolayer integrity, and the permeability of Atenolol (low permeability marker) and Sulfasalazine (marker for active excretion) is determined for each batch as quality control.
Representative results from this assay are listed in Table 2 below together with corresponding data for two structural analogs having an unsubstituted methyl group in 6-position of the 1,4-dihydropyridine ring (comparative Examples A and B, see experimental section above; disclosed generically in WO 2008/071451-A1): […]

SMILES | Papp at 2 h, 2 μM [×10⁻⁶ cm/s]
Cc1n[nH]c2ccc(C3C(C#N)=C(c4ccc(F)cc4)NC(C(F)F)=C3C#N)cc12 (racemic) [Example 6] | 15
COc1ccc(C2=C(C#N)C(c3ccc4[nH]nc(C)c4c3)C(C#N)=C(C)N2)cc1 (racemic) [Example A, 2-(4-Methoxyphenyl)-6-methyl-4-(3-methyl-1H-indazol-5-yl)-1,4-dihydropyridine-3,5-dicarbonitrile, reference compound] | 9.9
COc1ccc(C2=C(C#N)C(c3ccc4[nH]nc(C)c4c3)C(C#N)=C(C(F)F)N2)cc1 (centres unmarked) [Example 8] | 17

Continued, values first:

Papp at 2 h, 2 μM [×10⁻⁶ cm/s] | SMILES
15.8 | Cc1n[nH]c2ccc(C3C(C#N)=C(c4ccc(F)cc4)NC(C(F)(F)F)=C3C#N)cc12 (racemic) [Example 13]
6.2 | CC1=C(C#N)C(c2ccc3[nH]nc(C)c3c2)C(C#N)=C(c2ccc(F)cc2)N1 (racemic) [Example B, 2-(4-Fluorophenyl)-6-methyl-4-(3-methyl-1H-indazol-5-yl)-1,4-dihydropyridine-3,5-dicarbonitrile, reference compound]
